Test results taken from patent publication US8344010B2, “Fused imidazole derivatives as TRPV3 antagonist” (Glenmark Pharmaceuticals S.A., priority 2008, dated 2013).

Target: T1, Human TRPV3 (Homo sapiens, UniProt Q8NET8)
T1 construct: expressed in transfected cells; host or cells: CHO cells (selected with G-418)
T1 sequence (Q8NET8 1-790): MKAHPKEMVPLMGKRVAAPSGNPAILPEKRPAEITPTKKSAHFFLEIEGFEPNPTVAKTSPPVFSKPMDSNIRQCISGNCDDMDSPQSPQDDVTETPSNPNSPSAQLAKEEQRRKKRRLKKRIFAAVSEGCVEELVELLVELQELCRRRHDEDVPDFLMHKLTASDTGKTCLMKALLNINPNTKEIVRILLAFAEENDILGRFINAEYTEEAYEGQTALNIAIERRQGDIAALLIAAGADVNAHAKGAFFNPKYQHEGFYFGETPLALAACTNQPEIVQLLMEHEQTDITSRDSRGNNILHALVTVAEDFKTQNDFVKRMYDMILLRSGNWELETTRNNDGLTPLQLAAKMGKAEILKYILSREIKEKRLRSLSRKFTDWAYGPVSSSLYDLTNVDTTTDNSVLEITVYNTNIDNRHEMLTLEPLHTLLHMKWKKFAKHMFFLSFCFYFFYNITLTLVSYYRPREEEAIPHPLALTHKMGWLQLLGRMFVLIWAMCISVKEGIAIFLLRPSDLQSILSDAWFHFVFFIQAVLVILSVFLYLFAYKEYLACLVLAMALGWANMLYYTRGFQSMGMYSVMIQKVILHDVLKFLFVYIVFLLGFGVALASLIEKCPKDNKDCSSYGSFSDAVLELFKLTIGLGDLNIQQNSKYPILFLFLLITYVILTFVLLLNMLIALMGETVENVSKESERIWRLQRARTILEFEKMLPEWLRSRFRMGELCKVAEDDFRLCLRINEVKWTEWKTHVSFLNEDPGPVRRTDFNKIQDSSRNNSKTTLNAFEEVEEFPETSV
Assay: 45Calcium uptake assay: inhibition of 2-APB induced cellular uptake of radioactive calcium
Assay type: cell-based
Settings: human TRPV3 expressing CHO cells, 2-APB 500 μM; for inhibition at 1 µM: 1 μM test compound, read-out: Percentage Inhibition (1 μM); for inhibition at 10 µM: 10 μM test compound, read-out: Percentage Inhibition (10 μM); for IC50: class symbol
Source text: The illustrative examples of the present invention are screened for TRPV3 activity according to a modified procedure described in Tóth, A., Kedei, N., Wang, Y. and Blumberg, P. M. Life Sciences (2003), 73, 487-498. The screening of the compounds can be carried out by other methods and procedures known to a person skilled in the art. Such screening methods may be found in (a) Hu, H.-Z. et al. J. Biol. Chem. (2004), 279, 35741-35747; (b) Smith, G. D. et al. Nature (2002), 418, 186-190; (c) Peier, A. M. et al. Science (2002), 296, 2046-2049.
Screening for TRPV3 antagonist using the ^45Calcium uptake assay The inhibition of TRPV3 receptor activation was followed as inhibition of 2-aminoethoxydiphenylborate (2-APB) induced cellular uptake of radioactive calcium. Test compounds were dissolved in dimethyl sulfoxide (DMSO) to prepare 20 mM stock solution and then diluted using plain medium with DMEM/F-12 containing 1.8 mM CaCl2 to get desired concentration. Final concentration of DMSO in the reaction was 0.5% (v/v). Human TRPV3 expressing CHO cells were grown in DMEM/F-12 medium with 10% FBS, 1% penicillin-streptomycin solution, 400 μg/ml of G-418. Cells were seeded 24 h prior to the assay in 96 well plates so as to get ˜50,000 cells per well on the day of experiment. Cells were treated with test compounds for 10 minutes followed by addition of 2-APB at a final concentration of 500 μM and 5 μCi/ml^45Ca^+2 for 4 minutes. Cells were washed and lysed using buffer containing 1% Triton X-100, 0.1% deoxycholate and 0.1% SDS. Radioactivity in the lysate was measured in Packardt Top count after addition of liquid scintillant. Concentration response curves were plotted as a % of maximal response obtained in the absence of test antagonist. IC50 value was calculated from concentration response curve by nonlinear regression analysis using GraphPad PRISM software.
Percentage inhibition at concentrations of 1.0 μM and 10.0 μM are given in the table along with IC50 details for selected examples.

SMILES	inhibition at 1 µM [%]	inhibition at 10 µM [%]	IC50 [nM]
COc1cccc(/C=C/c2nc3ccccc3n2-c2ccccn2)c1OCC1CC1 [Example 1, 2-{(E)-2-[2-(Cyclopropylmethoxy)-3-methoxyphenyl]vinyl}-1-pyridin-2-yl-1H-benzimidazole]	12.8	78.5	
COc1cccc(/C=C/c2nc3ccccc3n2-c2ccccn2)c1OC1CCCC1 [Example 2, 2-[(E)-2-(2-Cyclopentyloxy-3-methoxyphenyl)vinyl]-1-pyridin-2-yl-1H-benzimidazole]	3.64	85	
COc1cccc(/C=C/c2nc3ccccc3n2-c2ccc(Cl)cn2)c1OC1CCCC1 [Example 3, 1-(5-Chloropyridin-2-yl)-2-{(E)-2-[2-(cyclopentyloxy)-3-methoxyphenyl]vinyl}-1H-benzimidazole]	62.1	86.6	> 500
COc1cccc(/C=C/c2nc3ccccc3n2-c2ccc([N+](=O)[O-])cn2)c1OC1CCCC1 [Example 4, 2-[(E)-2-(2-[Cyclopentyloxy]-3-methoxyphenyl)vinyl]-1-(5-nitropyridin-2-yl)-1H-benzimidazole]	50.9	81.7	
COc1cccc(/C=C/c2nc3ccccc3n2-c2ncc(Cl)cc2Cl)c1OCc1ccccc1 [Example 5, 2-[(E)-2-(2-Benzyloxy-3-methoxyphenyl)vinyl]-1-(3,5-dichloropyridin-2-yl)-1H-benzimidazole]	38.8	69.3	
COc1cccc(/C=C/c2nc3ccccc3n2-c2ncc(Cl)cc2Cl)c1OCc1ccccc1F [Example 6, 1-(3,5-Dichloropyridin-2-yl)-2-{(E)-2-[2-(2-fluorobenzyloxy)-3-methoxyphenyl]vinyl}-1H-benzimidazole]	66.8	89	> 500
COc1cccc(/C=C/c2nc3ccccc3n2-c2ncccc2C#N)c1OC1CCCC1 [Example 7, 2-{2-[(E)-2-(2-Cyclopentyloxy-3-methoxyphenyl)vinyl]-1H-benzimidazol-1-yl}nicotinonitrile]	6.4	92.8	
CCCCOc1c(/C=C/c2nc3ccccc3n2-c2ccc(C#N)cn2)cccc1OC [Example 8, 6-{2-[(E)-2-(2-Butoxy-3-methoxyphenyl)vinyl]-1H-benzimidazol-1-yl}nicotinonitrile]	91.6	97	100 to 500
COc1cccc(/C=C/c2nc3ccccc3n2-c2ccc(C#N)cn2)c1OC(C)C [Example 9, 6-{2-[(E)-2-(2-Isopropoxy-3-methoxyphenyl)vinyl]-1H-benzimidazol-1-yl}nicotinonitrile]	79.7	97.9	> 500
CCC(CC)Oc1c(/C=C/c2nc3ccccc3n2-c2ccc(C#N)cn2)cccc1OC [Example 10, 6-{2-[(E)-2-(2-(1-Ethylpropoxy)-3-methoxyphenyl)vinyl]-1H-benzimidazol-1-yl}nicotinonitrile]	96.6	99.1	100 to 500
COc1cccc(/C=C/c2nc3ccccc3n2-c2ccc(C#N)cn2)c1OCC(C)C [Example 11, 6-(2-{(E)-2-[3-methoxy-2-(2-methylpropoxy)phenyl]ethenyl}-1H-benzimidazol-1-yl)pyridine-3-carbonitrile]	94.8	97.4	100 to 500
COc1cccc(/C=C/c2nc3ccccc3n2-c2ccc(C#N)cn2)c1OCC1CC1 [Example 12, 6-{2-[(E)-2-(2-[Cyclopropylmethoxy]-3-methoxyphenyl)vinyl]-1H-benzimidazol-1-yl}nicotinonitrile]	81.4	97.7	100 to 500
COc1cccc(/C=C/c2nc3ccccc3n2-c2ccc(C#N)cn2)c1OC1CCCC1 [Example 13, 6-{2-[(E)-2-(2-Cyclopentyloxy-3-methoxyphenyl)vinyl]-1H-benzimidazol-1-yl}nicotinonitrile]	89.1	95.8	100 to 500
COc1cccc(/C=C/c2nc3ccccc3n2-c2ccc(C#N)cn2)c1OCc1ccccc1F [Example 14, 6-(2-{(E)-2-[2-(2-Fluorobenzyloxy)-3-methoxyphenyl]vinyl}-1H-benzimidazol-1-yl)nicotinonitrile]	93.2	97.7	100 to 500
COc1cccc(/C=C/c2nc3ccccc3n2-c2ccc(C#N)cn2)c1OCc1ccccc1C#N [Example 15]	90.3	95.1	> 500
COc1cccc(/C=C/c2nc3ccccc3n2-c2ccc(C#N)cn2)c1OCc1ccccc1C(F)(F)F [Example 16, 6-{2-[(E)-2-(3-Methoxy-2-{[2-(trifluoromethyl)benzyl]oxy}phenyl)vinyl]-1H-benzimidazole-1-yl}nicotinonitrile]	97.7	99	50 to 100
COc1cccc(/C=C/c2nc3ccccc3n2-c2ccc(C#N)cn2)c1OCc1c(F)cccc1F [Example 17, 6-(2-{(E)-2-[2-(2,6-Difluorobenzyloxy)-3-methoxyphenyl]vinyl}-1H-benzimidazol-1-yl)nicotinonitrile]	84.3	95.8	100 to 500
COc1cccc(/C=C/c2nc3ccccc3n2-c2ccc(C#N)cn2)c1OCc1ccc(F)cc1F [Example 18, 6-(2-{(E)-2-[2-(2,4-Difluorobenzyloxy)-3-methoxyphenyl]vinyl}-1H-benzimidazol-1-yl)nicotinonitrile]	94.2	97.3	100 to 500
CCOC(=O)c1ccc(-n2c(/C=C/c3cccc(OC)c3OC3CCCC3)nc3ccccc32)nn1 [Example 19, Ethyl 6-{2-[(E)-2-(2-[Cyclopentyloxy]-3-methoxyphenyl)vinyl]-1H-benzimidazol-1-yl}pyridazine-3-carboxylate]	82.9	95.9	100 to 500
COc1cccc(/C=C/c2nc3ccccc3n2-c2ccc(C#N)nn2)c1OC1CCCC1 [Example 20, 6-{2-[(E)-2-(2-[Cyclopentyloxy]-3-methoxyphenyl)vinyl]-1H-benzimidazol-1-yl}pyridazine-3-carbonitrile]	0	52.7	
COc1cccc(/C=C/c2nc3ccccc3n2-c2ncccn2)c1OC1CCCC1 [Example 21]	13	81.9	
CCC(CC)Oc1c(/C=C/c2nc3ccccc3n2-c2ncc(Br)cn2)cccc1OC [Example 22, 1-(5-Bromopyrimidin-2-yl)-2-{(E)-2-[2-(1-ethylpropoxy)-3-methoxyphenyl]vinyl}-1H-benzimidazole]	70.6	89.2	100 to 500
COc1cccc(/C=C/c2nc3ccccc3n2-c2ncc(Br)cn2)c1OC1CCCC1 [Example 23, 1-(5-Bromopyrimidin-2-yl)-2-[(E)-2-(2-cyclopentyloxy-3-methoxyphenyl)vinyl]-1H-benzimidazole]	56	84.5	
